Test results from ChEMBL document CHEMBL5465560, “Selectivity Literature for EUbOPEN Chemogenomic Library” (2024).
Values belong to the compound of their own block, whether it stands above or below them.

Legend:
[1] = biological target: T1, Dual specificity mitogen-activated protein kinase kinase 7 (Homo sapiens) (UniProt O14733); assay: Selectivity interaction (Ambit KINOMEscan and KiNATiv profiling in Jurkat cells) EUB0000090b MAP2K7; assay type: cell-based; conditions: at 1 µM
T1 sequence (whole entry): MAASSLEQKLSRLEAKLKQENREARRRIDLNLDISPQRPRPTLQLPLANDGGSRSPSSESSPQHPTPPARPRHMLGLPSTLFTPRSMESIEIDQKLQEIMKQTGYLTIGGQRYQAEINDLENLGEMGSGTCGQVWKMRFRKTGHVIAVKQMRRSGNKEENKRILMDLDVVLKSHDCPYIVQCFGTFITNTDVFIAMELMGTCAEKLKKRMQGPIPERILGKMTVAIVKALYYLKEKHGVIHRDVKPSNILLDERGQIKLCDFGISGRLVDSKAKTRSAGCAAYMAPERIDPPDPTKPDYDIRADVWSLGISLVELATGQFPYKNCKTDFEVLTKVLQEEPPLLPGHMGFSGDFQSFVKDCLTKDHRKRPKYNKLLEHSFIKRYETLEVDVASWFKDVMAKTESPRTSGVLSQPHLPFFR

[2] = biological target: Dual specificity tyrosine-phosphorylation-regulated kinase 1A (Homo sapiens, UniProt Q13627); assay: Selectivity interaction (KinomeScan (DiscoverX)) EUB0001079a DYRK1A; conditions: at 1 µM
[3] = biological target: T2, Aurora kinase A (Homo sapiens) (UniProt O14965); assay: Selectivity interaction (SelectScreen profiling (Invitrogen)) EUB0000607a STK6; conditions: at 2 µM
T2 sequence (whole entry): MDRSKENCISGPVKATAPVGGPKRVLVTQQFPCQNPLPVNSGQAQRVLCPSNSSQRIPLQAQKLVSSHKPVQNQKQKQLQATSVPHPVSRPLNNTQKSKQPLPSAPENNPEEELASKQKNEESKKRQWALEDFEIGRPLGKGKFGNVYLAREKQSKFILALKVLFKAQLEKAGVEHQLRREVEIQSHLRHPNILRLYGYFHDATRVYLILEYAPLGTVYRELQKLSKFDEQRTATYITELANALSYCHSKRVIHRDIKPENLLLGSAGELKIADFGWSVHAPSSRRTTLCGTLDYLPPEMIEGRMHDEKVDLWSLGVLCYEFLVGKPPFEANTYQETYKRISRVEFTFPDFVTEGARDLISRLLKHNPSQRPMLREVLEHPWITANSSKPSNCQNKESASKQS

[4] = biological target: Mitogen-activated protein kinase kinase kinase kinase 4 (Homo sapiens, UniProt O95819); assay: Selectivity interaction (KinomeScan (DiscoverX)) EUB0000595a MAP4K4; conditions: at 10 µM
[5] = biological target: NT-3 growth factor receptor (Homo sapiens, UniProt Q16288); assay: Selectivity interaction (KinomeScan (DiscoverX)) EUB0000595a NTRK3; conditions: at 10 µM
[6] = biological target: Mitogen-activated protein kinase 9 (Homo sapiens, UniProt P45984); assay: Selectivity interaction (Upstate Kinase Profiler service (Millipore)) EUB0000056c MAPK9; conditions: at 1 µM
[7] = biological target: T3, Serine/threonine-protein kinase STK11 (Homo sapiens) (UniProt Q15831); assay: Selectivity interaction (KinomeScan (DiscoverX)) EUB0000229b STK11; conditions: at 10 µM
T3 sequence (whole entry): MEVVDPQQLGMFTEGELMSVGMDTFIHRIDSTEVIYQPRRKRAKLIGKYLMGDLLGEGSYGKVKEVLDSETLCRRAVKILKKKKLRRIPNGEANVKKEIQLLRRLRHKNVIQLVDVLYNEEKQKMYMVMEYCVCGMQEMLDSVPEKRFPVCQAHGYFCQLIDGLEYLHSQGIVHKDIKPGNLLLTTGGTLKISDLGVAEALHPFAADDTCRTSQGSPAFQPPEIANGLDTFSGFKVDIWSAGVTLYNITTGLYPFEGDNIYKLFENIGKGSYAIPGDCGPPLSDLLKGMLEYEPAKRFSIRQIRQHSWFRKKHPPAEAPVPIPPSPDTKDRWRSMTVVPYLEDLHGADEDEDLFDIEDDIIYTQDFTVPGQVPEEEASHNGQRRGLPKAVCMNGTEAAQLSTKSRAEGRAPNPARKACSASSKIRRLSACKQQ

[8] = biological target: T4, Homeodomain-interacting protein kinase 4 (Homo sapiens) (UniProt Q8NE63); assay: Selectivity interaction (ProQinase) EUB0000171b HIPK4
T4 sequence (whole entry): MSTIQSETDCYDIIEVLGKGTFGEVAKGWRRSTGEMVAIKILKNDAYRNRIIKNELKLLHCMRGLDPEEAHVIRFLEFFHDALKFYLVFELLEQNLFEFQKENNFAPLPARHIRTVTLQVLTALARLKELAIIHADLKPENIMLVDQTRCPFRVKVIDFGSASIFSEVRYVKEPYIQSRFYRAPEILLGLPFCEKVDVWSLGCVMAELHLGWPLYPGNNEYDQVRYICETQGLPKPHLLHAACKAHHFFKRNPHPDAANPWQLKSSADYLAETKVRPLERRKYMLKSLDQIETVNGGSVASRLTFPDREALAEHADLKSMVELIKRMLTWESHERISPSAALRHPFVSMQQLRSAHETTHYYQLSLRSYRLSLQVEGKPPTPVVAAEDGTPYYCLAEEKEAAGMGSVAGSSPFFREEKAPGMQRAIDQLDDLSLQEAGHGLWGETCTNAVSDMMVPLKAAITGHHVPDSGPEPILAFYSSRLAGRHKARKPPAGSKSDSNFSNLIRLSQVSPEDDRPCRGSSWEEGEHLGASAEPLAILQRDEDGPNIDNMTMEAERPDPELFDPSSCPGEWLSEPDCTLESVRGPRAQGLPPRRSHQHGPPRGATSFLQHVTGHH

[9] = biological target: Serine/threonine-protein kinase SBK1 (Homo sapiens) (UniProt Q52WX2); assay: Selectivity interaction (KinomeScan (DiscoverX)) EUB0000666a SBK1; conditions: at 10 µM
[10] = biological target: T5, Activin receptor type-1B (Homo sapiens) (UniProt P36896); assay: Selectivity interaction (KinomeScan (DiscoverX)) EUB0000666a ACVR1B; conditions: at 10 µM
T5 sequence (whole entry): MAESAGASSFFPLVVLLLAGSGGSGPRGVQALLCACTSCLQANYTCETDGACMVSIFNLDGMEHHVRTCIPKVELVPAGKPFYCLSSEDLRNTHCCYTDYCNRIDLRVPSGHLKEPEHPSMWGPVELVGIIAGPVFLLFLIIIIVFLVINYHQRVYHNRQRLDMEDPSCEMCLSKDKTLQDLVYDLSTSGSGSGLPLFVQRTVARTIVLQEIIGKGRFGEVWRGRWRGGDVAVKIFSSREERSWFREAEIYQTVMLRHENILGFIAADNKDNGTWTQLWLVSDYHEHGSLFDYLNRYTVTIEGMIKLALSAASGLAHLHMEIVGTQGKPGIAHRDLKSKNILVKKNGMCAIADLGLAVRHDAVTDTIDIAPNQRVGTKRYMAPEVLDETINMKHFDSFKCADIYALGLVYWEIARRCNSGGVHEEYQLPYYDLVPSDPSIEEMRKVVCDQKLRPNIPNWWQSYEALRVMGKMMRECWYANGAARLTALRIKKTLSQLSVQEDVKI

[11] = biological target: Hepatocyte growth factor receptor (Homo sapiens, UniProt P08581); assay: Selectivity interaction (Kinase counterscreening (biochemical assay)) EUB0000604a MET
Hepatocyte growth factor receptor, sequence (P08581 whole entry): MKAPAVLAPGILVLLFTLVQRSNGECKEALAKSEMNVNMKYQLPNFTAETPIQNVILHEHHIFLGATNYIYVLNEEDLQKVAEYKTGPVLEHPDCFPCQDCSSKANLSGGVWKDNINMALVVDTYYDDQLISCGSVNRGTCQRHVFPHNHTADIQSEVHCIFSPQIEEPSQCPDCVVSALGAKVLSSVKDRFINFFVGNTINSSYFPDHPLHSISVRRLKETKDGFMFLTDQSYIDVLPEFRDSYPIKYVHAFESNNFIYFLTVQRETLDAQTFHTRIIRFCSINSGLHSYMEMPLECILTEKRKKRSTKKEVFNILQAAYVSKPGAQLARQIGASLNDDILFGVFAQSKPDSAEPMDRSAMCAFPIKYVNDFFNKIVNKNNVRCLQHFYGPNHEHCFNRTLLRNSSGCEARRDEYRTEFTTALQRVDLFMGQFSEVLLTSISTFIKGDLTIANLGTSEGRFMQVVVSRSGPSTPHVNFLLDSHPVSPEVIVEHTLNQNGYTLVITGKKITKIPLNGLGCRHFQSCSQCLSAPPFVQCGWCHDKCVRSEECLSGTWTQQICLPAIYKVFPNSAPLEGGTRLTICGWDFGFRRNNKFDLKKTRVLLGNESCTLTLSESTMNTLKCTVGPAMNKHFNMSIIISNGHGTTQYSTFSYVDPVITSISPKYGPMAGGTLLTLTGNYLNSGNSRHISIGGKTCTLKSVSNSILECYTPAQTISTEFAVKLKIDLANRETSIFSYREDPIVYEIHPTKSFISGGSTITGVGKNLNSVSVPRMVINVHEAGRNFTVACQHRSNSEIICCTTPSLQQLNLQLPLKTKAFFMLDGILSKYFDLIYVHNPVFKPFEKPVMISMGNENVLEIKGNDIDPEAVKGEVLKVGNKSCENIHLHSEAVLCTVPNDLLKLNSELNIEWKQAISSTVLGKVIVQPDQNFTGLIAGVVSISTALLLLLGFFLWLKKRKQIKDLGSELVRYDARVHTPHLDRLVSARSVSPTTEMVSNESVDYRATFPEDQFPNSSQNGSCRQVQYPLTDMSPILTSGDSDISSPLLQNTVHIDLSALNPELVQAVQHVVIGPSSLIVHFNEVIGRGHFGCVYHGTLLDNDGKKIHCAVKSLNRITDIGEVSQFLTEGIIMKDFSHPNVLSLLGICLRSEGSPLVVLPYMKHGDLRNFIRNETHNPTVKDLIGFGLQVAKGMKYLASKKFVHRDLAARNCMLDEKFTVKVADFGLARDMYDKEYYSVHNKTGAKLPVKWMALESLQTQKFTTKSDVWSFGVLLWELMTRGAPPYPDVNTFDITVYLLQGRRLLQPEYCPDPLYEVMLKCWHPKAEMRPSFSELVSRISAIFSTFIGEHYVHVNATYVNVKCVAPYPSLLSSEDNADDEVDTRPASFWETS

Mitogen-activated protein kinase 9, sequence (P45984 whole entry, looked up): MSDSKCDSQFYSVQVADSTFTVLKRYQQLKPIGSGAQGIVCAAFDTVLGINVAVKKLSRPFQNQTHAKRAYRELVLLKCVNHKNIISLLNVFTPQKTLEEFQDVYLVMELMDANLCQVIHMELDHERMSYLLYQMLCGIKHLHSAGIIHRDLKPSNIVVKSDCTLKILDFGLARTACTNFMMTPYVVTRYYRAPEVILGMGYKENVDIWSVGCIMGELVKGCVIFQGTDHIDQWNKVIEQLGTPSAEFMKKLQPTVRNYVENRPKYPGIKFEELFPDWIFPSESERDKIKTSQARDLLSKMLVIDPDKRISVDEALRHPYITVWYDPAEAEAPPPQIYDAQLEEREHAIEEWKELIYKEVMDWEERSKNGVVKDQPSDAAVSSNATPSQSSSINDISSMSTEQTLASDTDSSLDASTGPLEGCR
NT-3 growth factor receptor, sequence (Q16288 32-839 limits assumed): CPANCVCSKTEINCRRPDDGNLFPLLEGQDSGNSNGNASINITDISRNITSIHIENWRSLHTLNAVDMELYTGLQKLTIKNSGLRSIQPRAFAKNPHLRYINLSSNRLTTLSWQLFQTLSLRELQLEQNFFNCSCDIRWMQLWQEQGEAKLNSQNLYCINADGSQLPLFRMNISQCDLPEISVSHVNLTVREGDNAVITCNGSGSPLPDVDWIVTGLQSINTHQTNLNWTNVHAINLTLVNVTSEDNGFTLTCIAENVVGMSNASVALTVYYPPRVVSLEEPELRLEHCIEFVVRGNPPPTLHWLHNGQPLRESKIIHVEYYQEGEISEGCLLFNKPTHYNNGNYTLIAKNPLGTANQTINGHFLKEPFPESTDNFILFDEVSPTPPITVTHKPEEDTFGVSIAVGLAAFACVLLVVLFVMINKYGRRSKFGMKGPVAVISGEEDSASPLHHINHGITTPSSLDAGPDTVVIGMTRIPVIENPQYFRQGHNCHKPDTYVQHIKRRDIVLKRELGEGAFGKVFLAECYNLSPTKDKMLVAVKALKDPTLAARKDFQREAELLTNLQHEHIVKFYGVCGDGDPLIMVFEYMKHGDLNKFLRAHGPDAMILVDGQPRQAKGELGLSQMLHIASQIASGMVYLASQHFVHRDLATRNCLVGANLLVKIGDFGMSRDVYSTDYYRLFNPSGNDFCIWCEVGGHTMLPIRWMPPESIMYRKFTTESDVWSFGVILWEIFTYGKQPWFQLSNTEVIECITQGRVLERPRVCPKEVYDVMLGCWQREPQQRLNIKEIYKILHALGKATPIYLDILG
Serine/threonine-protein kinase SBK1 (Homo sapiens), sequence (Q52WX2 whole entry): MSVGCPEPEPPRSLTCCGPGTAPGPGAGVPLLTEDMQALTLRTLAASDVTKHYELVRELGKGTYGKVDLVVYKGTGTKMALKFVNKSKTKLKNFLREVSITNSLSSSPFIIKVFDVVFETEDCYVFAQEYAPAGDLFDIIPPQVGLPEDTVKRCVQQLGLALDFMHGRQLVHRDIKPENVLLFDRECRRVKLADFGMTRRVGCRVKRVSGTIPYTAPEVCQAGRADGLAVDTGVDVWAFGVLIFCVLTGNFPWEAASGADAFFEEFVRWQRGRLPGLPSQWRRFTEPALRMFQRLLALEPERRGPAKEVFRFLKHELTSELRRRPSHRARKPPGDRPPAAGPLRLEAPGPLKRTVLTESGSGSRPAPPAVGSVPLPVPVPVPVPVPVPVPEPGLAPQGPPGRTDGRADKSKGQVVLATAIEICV
Mitogen-activated protein kinase kinase kinase kinase 4, sequence (O95819 2-1239 limits assumed): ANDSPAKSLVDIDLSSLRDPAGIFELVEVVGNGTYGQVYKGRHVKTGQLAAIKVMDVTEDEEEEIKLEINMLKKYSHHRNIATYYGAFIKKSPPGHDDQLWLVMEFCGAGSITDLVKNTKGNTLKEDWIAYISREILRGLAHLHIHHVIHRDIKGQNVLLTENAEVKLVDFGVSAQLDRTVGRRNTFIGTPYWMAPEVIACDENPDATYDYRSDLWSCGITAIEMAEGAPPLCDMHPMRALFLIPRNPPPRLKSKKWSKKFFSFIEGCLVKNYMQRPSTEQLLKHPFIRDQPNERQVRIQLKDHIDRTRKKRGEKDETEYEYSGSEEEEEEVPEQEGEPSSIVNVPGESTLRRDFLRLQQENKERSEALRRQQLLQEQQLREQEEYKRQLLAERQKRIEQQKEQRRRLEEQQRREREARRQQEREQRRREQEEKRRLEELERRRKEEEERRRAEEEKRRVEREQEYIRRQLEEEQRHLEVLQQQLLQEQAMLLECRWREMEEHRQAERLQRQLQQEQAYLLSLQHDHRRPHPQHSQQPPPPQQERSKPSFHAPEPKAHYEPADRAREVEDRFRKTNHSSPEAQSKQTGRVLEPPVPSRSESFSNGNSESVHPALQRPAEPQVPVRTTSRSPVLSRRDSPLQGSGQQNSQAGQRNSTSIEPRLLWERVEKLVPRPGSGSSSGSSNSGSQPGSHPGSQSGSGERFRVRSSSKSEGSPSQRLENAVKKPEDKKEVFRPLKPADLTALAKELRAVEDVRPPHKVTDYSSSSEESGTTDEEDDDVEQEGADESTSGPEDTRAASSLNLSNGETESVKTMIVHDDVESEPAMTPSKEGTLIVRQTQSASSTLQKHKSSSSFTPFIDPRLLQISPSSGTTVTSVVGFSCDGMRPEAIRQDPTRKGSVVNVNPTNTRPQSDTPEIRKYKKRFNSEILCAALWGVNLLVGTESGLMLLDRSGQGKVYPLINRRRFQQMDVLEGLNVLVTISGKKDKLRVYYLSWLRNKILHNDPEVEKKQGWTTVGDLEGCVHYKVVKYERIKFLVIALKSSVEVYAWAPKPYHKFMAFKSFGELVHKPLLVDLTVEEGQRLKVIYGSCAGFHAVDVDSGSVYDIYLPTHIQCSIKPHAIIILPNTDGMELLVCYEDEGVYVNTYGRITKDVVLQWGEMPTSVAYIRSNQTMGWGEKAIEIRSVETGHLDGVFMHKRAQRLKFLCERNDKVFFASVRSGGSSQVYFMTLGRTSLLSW

SMILES: CN(C)C/C=C/C(=O)Nc1ccc(C(=O)N2CCCC(Nc3ncc(Cl)c(-c4c[nH]c5ccccc45)n3)C2)cc1 (configuration not stated)
% of control [1]: 100%

SMILES: Nc1cnc(N2CCc3cc(S(=O)(=O)Nc4c(F)cc(Cl)cc4F)cc(N4CCCC4=O)c32)nc1 [TP-020n]
% of control [2]: 80%

SMILES: CNC(=O)Nc1ccc(-c2nc(N3CC4CCC(C3)O4)c3cnn(C4CCC5(CC4)OCCO5)c3n2)cc1
% of inhibition [3]: 0%

SMILES: COCC(=O)NC/C=C/c1ccc2ncnc(Nc3ccc(Oc4ccc(C)nc4)c(C)c3)c2c1 [CP-724714]
% of control [4]: 97% | % of control [5]: 93%

% of inhibition [6]: -12%
SMILES: Cc1ccc(-c2ccc3c(ccc4sc5c(c43)NC[C@@H](C)NC5=O)n2)cn1

SMILES: COc1cc(N(C)c2ccnc3ccc(C(F)(F)F)cc23)cc(OC)c1OC
% binding [7]: 77%

% of control ([8]; at 1 µM): 76% | % of control ([8]; at 5 µM): 37%
SMILES: C=CC(=O)Nc1cccc(C(=O)Nc2ccc(Nc3cc(-c4[nH]c(SC)nc4C)ccn3)cc2)c1

SMILES: O=C(NOC[C@H](O)CO)c1ccc(F)c(F)c1Nc1ccc(I)cc1F
% of control [9]: 100% | % of control [10]: 100%

SMILES: Cc1cnc(Nc2ccc(F)cc2Cl)nc1-c1c[nH]c(C(=O)N[C@H](CO)c2cccc(Cl)c2)c1
Ki [11]: > 4 µM
